Experimental data reported in patent publication US11286256B2, “Bicyclic inhibitors of histone deacetylase” (Alkermes, Inc., priority 2017, dated 2022).

target: T1, CYP2D6 (Homo sapiens, UniProt P10635); assay: CYP inhibition assay in human liver microsomes (2D6); format: in vitro ADME; settings: 10 μM
T1 construct: Human liver microsomes were obtained from BD Gentest; tissue BD Gentest; host or cells: human liver microsomes
Experimental: (§1) Compounds were tested to evaluate their inhibitory potential on CYP2D6 and CYP3A4 (midazolam) using human liver microsomes. Human liver microsomes were obtained from BD Gentest, and each compound was run in duplicate.
(§2) The test compounds and reference inhibitors (quinidine for 2D6, ketoconazole for 3A4) were plated in a 96-well plate by transferring 8 μL of 10 mM stock solutions of compound in DMSO to 12 μL of acetonitrile. Individual inhibitor spiking solutions were prepared for CYP2D6 and CYP3A4 (8 μL of DMSO stock added to 12 μL of acetonitrile). Next added 400 μL of 0.2 mg/mL HLM to the assay wells and then added 2 μL of 400× test compound into the designated wells on ice. Next, added 200 μL of 0.2 mg/mL HLM to the assay wells and then added 1 μL of reference inhibitor solutions into the designated wells. The following solutions were added (in duplicate) to a 96-well assay plate on ice: The test compounds and reference inhibitors (quinidine for 2D6, ketoconazole for 3A4) were tested using the following experimental procedure:
(§3) 10. Incubate the assay plate at 37° C. 5 min for 3A4, 10 min for 2D6.
(§4) 11. Stop the reaction by adding 120 μL of ACN containing Internal Standard. For CYP3A4, the internal standard is 1′OH-midazolam-D4 (10 μM solution diluted to a final concentration of 0.1 μM by adding 100 μL internal standard stock to 10 mL ACN). For CYP2D6, the internal standard is 1-OH-Bufuralol-maleate-[D9] (49 μM solution diluted to a final concentration of 0.1 μM by adding 20 μL internal standard stock to 10 mL ACN).
(§5) The assessment on CYP isoform inhibition is as follows based on the assay results: if percentage of CYP inhibition is higher than 50%, indicates potent inhibition; if percentage of CYP inhibition is between 30-50%, indicates […]; if percentage of CYP inhibition is less than 30%, indicates slight or no inhibition. If the percentage of CYP inhibition is less than −30%, this indicates the compound may have some kind of activation of this isoform.

T1 sequence (P10635 whole entry): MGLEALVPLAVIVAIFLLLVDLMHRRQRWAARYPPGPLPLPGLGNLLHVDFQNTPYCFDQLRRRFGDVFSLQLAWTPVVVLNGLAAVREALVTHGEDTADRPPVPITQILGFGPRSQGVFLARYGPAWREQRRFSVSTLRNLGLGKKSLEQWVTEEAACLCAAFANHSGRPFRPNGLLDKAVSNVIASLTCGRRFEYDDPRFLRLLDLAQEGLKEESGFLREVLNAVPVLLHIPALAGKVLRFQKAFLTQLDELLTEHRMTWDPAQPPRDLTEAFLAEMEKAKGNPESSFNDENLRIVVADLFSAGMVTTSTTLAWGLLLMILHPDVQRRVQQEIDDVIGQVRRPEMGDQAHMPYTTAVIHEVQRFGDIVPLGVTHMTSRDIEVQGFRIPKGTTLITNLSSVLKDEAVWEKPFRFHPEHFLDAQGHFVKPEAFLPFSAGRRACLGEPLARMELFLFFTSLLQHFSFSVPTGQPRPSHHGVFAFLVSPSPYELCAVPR

inhibition of CYP2D6 (in words) | SMILES
significant inhibition | Nc1ccc(-c2ccc(F)cc2)nc1NC(=O)N1Cc2cncnc2C1 [Comparator D]
significant inhibition | Nc1ccc(-c2cccs2)nc1NC(=O)N1Cc2cncnc2C1 [Comparator E]
no significant inhibition | Cc1ncc2c(n1)CN(C(=O)Nc1nc(-c3cccs3)ccc1N)C2 [Compound 2]

same assay, conditions: human liver microsomes

inhibition at 10 min, 10 µM [%] | SMILES
34 | Nc1ccc(-c2ccc(F)cc2)cc1NC(=O)N1Cc2nccnc2C1 [Comparator A]
9 | Nc1ccc(-c2ccc(F)cc2)nc1NC(=O)N1Cc2nccnc2C1 [Comparator B]
0.2 | Nc1ccc(-c2cccs2)nc1NC(=O)N1Cc2nccnc2C1 [Comparator C]
85 | Nc1ccc(-c2ccc(F)cc2)nc1NC(=O)N1Cc2cncnc2C1 [Comparator D]
50 | Nc1ccc(-c2cccs2)nc1NC(=O)N1Cc2cncnc2C1 [Comparator E]
-1 | COCc1cc2c(cn1)CN(C(=O)Nc1nc(-c3ccc(F)cc3F)ccc1N)C2 [Compound 1]
-5 | Cc1ncc2c(n1)CN(C(=O)Nc1nc(-c3cccs3)ccc1N)C2 [Compound 2]

tested on: human erythroid progenitors (CFU-E, BFU-E); assay: Erythroid CFU assay in human bone marrow cells; format: cell-based; settings: 10 μM, 14 days culture, human bone marrow cells
Experimental: Compounds were tested to evaluate the potential effects on human erythroid and myeloid progenitors using colony forming cell assays. Clonogenic progenitors of human erythroid (CFU-E, BFU-E), granulocyte-monocyte (CFU-GM) and multipotential (CFU-GEMM) lineages were assessed in a semi-solid methylcellulose-based media formulation containing rhlL-3 (10 ng/mL), rhGM-SCF (10 ng/mL), rhSCF (50 ng/mL) and Epo (3 U/mL).
Normal human bone marrow light density cells derived from normal bone marrow (NorCal Biologics, California) and qualified at ReachBio, were stored in the gaseous phase of liquid nitrogen (−152° C.) until required for the assay. On the day of the experiment, the cells were thawed rapidly, the contents of each vial was diluted in 10 mL of Iscove's modified Dulbecco's medium containing 10% fetal bovine serum (IMDM+10% FBS) and washed by centrifugation (approximately 1200 r.p.m. for 10 minutes, room temperature). The supernatant was discarded and the cell pellets resuspended in a known volume of IMDM+10% FBS. A cell count (3% glacial acetic acid) and viability assessment (trypan blue exclusion test) was performed for the bone marrow sample.
On the day of the experiment, the compounds were dissolved in DMSO to a stock concentration of 10 mM. Serial dilutions were prepared from the stock concentration to achieve concentrations of 2 and 0.4 mM. When added to the methylcellulose-based media at 1:1000 (v/v), the final test concentrations of 10, 2 and 0.4 μM were achieved. Additionally, 5-FU was evaluated at 1.0, 0.1 and 0.01 μg/mL.
Clonogenic progenitors of the human erythroid (CFU-E and BFU-E) and myeloid (CFU-GM) lineages were set up in the methylcellulose-based media formulations described above. All compounds were added to the medium to give the final desired concentrations (10, 2 and 0.4 μM). 5-Fluorouracil (Sigma Aldrich) was used as a positive control for progenitor proliferation (inhibition of colony growth) and was introduced to the human bone marrow cultures at 1.0, 0.1, and 0.01 μg/mL. Solvent control cultures (containing no compound but 0.1% DMSO) as well as standard controls (containing no compound and no DMSO) were also initiated.
Human myeloid and erythroid progenitor assays were initiated at 2.0×10^4 cells per culture. Following 14 days in culture, myeloid and erythroid colonies were assessed microscopically and scored by trained personnel. The colonies were divided into the following categories based on size and morphology: CFU-E, BFU-E, CFU-GM and CFU-GEMM.
The mean±one standard deviation of three replicate cultures was calculated for progenitors of each category (CFU-E, BFU-E, etc.). Two-tailed t-tests were performed to assess if there was a difference in the number of colonies generated between solvent control and treated cultures. Due to the potential subjectivity of colony enumeration, a p value of less than 0.01 is deemed significant. To calculate the concentration of 50% inhibition of colony growth (IC50) for each compound, a dose response curve was generated plotting the log of the compound concentration versus the percentage of control colony growth using XLfit software (IDBS). The concentration of 50% inhibition of colony growth (IC50) was calculated based on the sigmoid curve fit using Dose-Response, One-Site Model formula: y=A+[(B−A)/(1+((C/x)^D))], where A=the initial value (baseline response), B=maximum response, C=center (drug concentration that provokes a response halfway between A and B) and D=slope of the curve at midpoint. Further, plots and additional dose response curves were generated using GraphPad Prism 7.0.
Erythroid (CFU-E and BFU-E), myeloid (CFU-GM) and multi-potential (CFU-GEMM) colony enumeration was performed by trained personnel. The distribution of colony types as well as general colony and cellular morphology was analyzed. For statistical analysis colony numbers in compound treated cultures were compared to the solvent control cultures. […]

CFU % Control remaining @ 10 μM Erythroid [%] | SMILES
0 | Nc1ccc(-c2ccc(F)cc2)cc1NC(=O)N1Cc2nccnc2C1 [Comparator A]
9 | Nc1ccc(-c2ccc(F)cc2)nc1NC(=O)N1Cc2nccnc2C1 [Comparator B]
20 | Nc1ccc(-c2cccs2)nc1NC(=O)N1Cc2nccnc2C1 [Comparator C]
47 | Nc1ccc(-c2ccc(F)cc2)nc1NC(=O)N1Cc2cncnc2C1 [Comparator D]
54 | Nc1ccc(-c2cccs2)nc1NC(=O)N1Cc2cncnc2C1 [Comparator E]
57 | COCc1cc2c(cn1)CN(C(=O)Nc1nc(-c3ccc(F)cc3F)ccc1N)C2 [Compound 1]
27 | Cc1ncc2c(n1)CN(C(=O)Nc1nc(-c3cccs3)ccc1N)C2 [Compound 2]

target: T2, CYP3A4 (Homo sapiens, UniProt P08684); assay: CYP inhibition assay in human liver microsomes (3A4, midazolam); format: in vitro ADME; settings: 10 μM
T2 construct: Human liver microsomes were obtained from BD Gentest; tissue BD Gentest; host or cells: human liver microsomes
T2 sequence (P08684 whole entry): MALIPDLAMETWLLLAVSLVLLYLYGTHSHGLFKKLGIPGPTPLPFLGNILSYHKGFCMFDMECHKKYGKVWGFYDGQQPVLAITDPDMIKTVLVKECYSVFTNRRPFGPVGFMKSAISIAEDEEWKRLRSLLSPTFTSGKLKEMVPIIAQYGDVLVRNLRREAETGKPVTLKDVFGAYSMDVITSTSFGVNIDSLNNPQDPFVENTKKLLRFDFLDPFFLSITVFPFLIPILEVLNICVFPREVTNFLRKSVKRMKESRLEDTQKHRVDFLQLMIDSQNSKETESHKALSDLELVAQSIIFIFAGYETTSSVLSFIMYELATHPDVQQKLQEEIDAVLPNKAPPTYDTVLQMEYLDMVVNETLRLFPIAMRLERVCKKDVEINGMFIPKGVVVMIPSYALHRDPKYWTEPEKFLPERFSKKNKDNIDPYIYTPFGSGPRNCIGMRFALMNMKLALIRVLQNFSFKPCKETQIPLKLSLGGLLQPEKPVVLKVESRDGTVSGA
Experimental: as §1, §2, §3, §4, §5

inhibition of CYP3A4 (in words) | SMILES
no significant inhibition | Cc1ncc2c(n1)CN(C(=O)Nc1nc(-c3cccs3)ccc1N)C2 [Compound 2]

same assay, conditions: probe midazolam, human liver microsomes, midazolam

inhibition at 5 min, 10 µM [%] | SMILES
-22 | Nc1ccc(-c2ccc(F)cc2)cc1NC(=O)N1Cc2nccnc2C1 [Comparator A]
1.5 | Nc1ccc(-c2ccc(F)cc2)nc1NC(=O)N1Cc2nccnc2C1 [Comparator B]
1 | Nc1ccc(-c2cccs2)nc1NC(=O)N1Cc2nccnc2C1 [Comparator C]
2 | Nc1ccc(-c2ccc(F)cc2)nc1NC(=O)N1Cc2cncnc2C1 [Comparator D]
-17 | Nc1ccc(-c2cccs2)nc1NC(=O)N1Cc2cncnc2C1 [Comparator E]
27 | COCc1cc2c(cn1)CN(C(=O)Nc1nc(-c3ccc(F)cc3F)ccc1N)C2 [Compound 1]
1 | Cc1ncc2c(n1)CN(C(=O)Nc1nc(-c3cccs3)ccc1N)C2 [Compound 2]
